From paper PMC3961306, “Comparison of the Cancer Gene Targeting and Biochemical Selectivities of All Targeted Kinase Inhibitors Approved for Clinical Use” (PLoS ONE, 2014)

Key:
Test in all cases: Kinase profiling in a biochemical assay panel (mobility shift assays and ELISA), %-inhibition at 1 μM; selectivity entropy
[1] = target: panel of more than 300 wild-type and mutant kinases (313 kinase panel) (Homo sapiens, UniProt P04626)
[2] = target: panel of more than 300 wild-type and mutant kinases (313 kinase panel) (Homo sapiens, UniProt P04629)
[3] = target: panel of more than 300 wild-type and mutant kinases (313 kinase panel) (Homo sapiens, UniProt P08631)
Sequence of panel of more than 300 wild-type and mutant kinases (313 kinase panel) (Homo sapiens, UniProt P08631) (P08631 whole entry, stated change not applied): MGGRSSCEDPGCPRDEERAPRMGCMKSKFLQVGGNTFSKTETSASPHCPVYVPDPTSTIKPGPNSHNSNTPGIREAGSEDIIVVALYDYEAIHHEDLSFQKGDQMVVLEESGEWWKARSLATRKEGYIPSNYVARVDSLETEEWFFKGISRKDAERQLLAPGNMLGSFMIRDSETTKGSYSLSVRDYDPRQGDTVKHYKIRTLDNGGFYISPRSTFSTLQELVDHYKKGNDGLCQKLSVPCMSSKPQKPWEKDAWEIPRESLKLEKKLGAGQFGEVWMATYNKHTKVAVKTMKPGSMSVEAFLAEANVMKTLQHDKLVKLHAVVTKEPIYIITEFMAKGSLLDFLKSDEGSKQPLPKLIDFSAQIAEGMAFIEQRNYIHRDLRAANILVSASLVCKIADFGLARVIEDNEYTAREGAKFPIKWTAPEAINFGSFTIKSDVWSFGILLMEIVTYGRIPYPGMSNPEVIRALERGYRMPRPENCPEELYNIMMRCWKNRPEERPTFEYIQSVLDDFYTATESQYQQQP

[4] = target: panel of more than 300 wild-type and mutant kinases (313 kinase panel) (Homo sapiens, UniProt P16234, T674I)
[5] = target: panel of more than 300 wild-type and mutant kinases (313 kinase panel) (Homo sapiens, UniProt P19784)
Sequence of panel of more than 300 wild-type and mutant kinases (313 kinase panel) (Homo sapiens, UniProt P19784) (P19784 whole entry, change not shown): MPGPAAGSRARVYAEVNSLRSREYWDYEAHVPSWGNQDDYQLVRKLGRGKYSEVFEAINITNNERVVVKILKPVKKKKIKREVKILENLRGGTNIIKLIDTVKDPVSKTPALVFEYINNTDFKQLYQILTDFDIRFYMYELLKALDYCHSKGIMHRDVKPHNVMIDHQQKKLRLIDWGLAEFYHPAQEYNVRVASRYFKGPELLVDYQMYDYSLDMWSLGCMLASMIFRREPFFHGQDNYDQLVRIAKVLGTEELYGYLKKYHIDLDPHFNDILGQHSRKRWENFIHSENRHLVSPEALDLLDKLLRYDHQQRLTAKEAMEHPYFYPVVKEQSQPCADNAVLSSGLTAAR

[6] = target: panel of more than 300 wild-type and mutant kinases (313 kinase panel) (Homo sapiens, UniProt P27361); conditions: kinase Erk1; compound at 1 μM
Sequence of panel of more than 300 wild-type and mutant kinases (313 kinase panel) (Homo sapiens, UniProt P27361) (P27361 whole entry, change not shown): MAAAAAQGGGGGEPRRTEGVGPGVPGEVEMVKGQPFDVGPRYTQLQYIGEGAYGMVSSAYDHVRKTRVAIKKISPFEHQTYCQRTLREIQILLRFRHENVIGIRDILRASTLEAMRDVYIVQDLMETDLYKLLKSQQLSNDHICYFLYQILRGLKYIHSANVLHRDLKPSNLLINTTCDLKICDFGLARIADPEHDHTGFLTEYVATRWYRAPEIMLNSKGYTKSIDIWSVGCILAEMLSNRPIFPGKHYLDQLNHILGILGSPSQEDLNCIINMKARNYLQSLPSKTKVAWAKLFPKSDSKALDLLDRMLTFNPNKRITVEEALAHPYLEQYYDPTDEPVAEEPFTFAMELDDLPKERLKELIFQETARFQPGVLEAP

[7] = target: panel of more than 300 wild-type and mutant kinases (313 kinase panel) (Homo sapiens, UniProt P49840)
[8] = target: panel of more than 300 wild-type and mutant kinases (313 kinase panel) (Homo sapiens, UniProt Q07912)
Sequence of panel of more than 300 wild-type and mutant kinases (313 kinase panel) (Homo sapiens, UniProt Q07912) (Q07912 whole entry, change not shown): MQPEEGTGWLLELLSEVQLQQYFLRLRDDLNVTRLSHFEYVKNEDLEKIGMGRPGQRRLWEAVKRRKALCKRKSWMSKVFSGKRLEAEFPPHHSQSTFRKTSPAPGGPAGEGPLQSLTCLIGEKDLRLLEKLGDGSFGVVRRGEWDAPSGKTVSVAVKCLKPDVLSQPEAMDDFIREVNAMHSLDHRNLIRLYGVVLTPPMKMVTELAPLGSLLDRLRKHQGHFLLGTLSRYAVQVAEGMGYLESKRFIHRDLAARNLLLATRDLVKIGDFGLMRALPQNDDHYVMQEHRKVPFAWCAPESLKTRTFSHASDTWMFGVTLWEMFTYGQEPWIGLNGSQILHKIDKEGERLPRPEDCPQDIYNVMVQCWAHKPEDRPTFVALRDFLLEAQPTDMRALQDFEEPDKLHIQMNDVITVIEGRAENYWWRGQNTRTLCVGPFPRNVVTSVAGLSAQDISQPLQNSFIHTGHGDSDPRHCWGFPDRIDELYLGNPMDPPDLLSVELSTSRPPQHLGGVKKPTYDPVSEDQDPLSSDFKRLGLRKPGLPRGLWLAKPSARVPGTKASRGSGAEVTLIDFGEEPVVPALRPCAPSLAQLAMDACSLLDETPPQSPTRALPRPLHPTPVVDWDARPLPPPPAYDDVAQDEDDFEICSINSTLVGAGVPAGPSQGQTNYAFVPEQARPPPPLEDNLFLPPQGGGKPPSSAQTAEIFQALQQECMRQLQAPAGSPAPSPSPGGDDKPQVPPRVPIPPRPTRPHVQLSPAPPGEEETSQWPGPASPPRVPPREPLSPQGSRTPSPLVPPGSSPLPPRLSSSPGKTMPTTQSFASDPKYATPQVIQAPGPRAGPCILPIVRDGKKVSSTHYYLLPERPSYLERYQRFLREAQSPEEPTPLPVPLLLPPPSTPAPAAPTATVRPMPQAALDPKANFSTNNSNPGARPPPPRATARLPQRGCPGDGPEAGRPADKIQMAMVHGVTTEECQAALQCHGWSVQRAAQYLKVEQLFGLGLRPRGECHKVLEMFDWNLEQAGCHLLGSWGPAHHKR

[9] = target: T1, panel of more than 300 wild-type and mutant kinases (313 kinase panel) (Homo sapiens, UniProt Q13470)
T1 sequence (Q13470 1-666): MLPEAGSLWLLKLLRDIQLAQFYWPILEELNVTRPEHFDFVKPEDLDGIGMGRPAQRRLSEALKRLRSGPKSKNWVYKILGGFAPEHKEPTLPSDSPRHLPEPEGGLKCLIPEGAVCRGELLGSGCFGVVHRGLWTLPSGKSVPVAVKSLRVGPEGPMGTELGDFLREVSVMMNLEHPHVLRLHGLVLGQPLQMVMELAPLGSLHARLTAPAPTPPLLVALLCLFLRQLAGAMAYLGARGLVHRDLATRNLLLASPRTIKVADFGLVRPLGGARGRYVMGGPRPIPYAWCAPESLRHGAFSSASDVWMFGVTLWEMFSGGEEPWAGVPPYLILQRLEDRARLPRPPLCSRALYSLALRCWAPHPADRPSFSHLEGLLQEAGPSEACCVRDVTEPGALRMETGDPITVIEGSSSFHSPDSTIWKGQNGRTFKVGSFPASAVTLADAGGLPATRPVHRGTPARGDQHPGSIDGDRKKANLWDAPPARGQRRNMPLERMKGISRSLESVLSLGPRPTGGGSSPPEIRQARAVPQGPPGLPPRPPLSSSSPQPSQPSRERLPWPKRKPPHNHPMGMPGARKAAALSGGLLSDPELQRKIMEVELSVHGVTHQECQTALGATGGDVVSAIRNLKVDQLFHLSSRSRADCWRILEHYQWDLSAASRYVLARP

[10] = target: panel of more than 300 wild-type and mutant kinases (313 kinase panel) (Homo sapiens, UniProt Q15418); conditions: kinase RSK1; 1 μM
[11] = target: panel of more than 300 wild-type and mutant kinases (313 kinase panel) (Homo sapiens, UniProt Q9H422); conditions: kinase HIPK3; compound at 1 μM
[12] = target: panel of more than 300 wild-type and mutant kinases (313 kinase panel) (Homo sapiens, UniProt Q9H4B4); conditions: kinase PLK3; 1 μM
Sequence of panel of more than 300 wild-type and mutant kinases (313 kinase panel) (Homo sapiens, UniProt Q9H4B4) (Q9H4B4 whole entry, change not shown): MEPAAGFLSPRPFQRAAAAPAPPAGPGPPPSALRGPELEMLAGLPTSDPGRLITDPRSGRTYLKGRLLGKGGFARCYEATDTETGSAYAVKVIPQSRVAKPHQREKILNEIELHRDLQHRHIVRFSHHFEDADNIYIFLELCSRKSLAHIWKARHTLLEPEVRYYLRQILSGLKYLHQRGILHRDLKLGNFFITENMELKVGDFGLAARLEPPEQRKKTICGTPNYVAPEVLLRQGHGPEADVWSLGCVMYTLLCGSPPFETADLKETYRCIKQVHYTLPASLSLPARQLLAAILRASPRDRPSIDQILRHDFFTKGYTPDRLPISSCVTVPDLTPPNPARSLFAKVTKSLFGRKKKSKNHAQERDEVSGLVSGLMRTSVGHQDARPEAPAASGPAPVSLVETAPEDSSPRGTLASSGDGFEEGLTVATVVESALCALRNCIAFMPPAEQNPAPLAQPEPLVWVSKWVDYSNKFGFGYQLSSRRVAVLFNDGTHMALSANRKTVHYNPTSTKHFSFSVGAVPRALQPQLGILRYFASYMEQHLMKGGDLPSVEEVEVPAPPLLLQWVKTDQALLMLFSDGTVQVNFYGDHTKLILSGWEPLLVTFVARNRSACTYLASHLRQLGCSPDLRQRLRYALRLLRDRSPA

[13] = target: T2, panel of more than 300 wild-type and mutant kinases (313 kinase panel) (Homo sapiens, UniProt Q9Y2U5)
T2 sequence (Q9Y2U5 1-619): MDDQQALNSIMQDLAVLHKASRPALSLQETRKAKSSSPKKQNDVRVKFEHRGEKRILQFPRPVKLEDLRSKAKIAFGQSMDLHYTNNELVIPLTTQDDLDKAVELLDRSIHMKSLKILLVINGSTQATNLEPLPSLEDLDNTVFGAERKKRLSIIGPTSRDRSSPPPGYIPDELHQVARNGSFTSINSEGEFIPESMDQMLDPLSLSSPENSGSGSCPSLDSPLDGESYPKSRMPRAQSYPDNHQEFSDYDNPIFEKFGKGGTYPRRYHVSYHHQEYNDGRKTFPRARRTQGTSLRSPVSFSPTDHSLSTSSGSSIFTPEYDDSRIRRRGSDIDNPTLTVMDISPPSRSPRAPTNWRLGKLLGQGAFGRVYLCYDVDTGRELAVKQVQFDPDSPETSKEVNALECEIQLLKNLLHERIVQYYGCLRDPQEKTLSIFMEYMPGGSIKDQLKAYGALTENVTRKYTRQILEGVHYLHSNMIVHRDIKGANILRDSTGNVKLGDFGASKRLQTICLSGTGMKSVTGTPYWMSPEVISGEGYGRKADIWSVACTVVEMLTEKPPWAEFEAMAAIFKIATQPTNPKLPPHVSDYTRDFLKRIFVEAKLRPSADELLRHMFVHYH

[14] = kinase MAP3K2, compound at 1 μM

Sequence of panel of more than 300 wild-type and mutant kinases (313 kinase panel) (Homo sapiens, UniProt P04626) (P04626 23-1255, change not shown): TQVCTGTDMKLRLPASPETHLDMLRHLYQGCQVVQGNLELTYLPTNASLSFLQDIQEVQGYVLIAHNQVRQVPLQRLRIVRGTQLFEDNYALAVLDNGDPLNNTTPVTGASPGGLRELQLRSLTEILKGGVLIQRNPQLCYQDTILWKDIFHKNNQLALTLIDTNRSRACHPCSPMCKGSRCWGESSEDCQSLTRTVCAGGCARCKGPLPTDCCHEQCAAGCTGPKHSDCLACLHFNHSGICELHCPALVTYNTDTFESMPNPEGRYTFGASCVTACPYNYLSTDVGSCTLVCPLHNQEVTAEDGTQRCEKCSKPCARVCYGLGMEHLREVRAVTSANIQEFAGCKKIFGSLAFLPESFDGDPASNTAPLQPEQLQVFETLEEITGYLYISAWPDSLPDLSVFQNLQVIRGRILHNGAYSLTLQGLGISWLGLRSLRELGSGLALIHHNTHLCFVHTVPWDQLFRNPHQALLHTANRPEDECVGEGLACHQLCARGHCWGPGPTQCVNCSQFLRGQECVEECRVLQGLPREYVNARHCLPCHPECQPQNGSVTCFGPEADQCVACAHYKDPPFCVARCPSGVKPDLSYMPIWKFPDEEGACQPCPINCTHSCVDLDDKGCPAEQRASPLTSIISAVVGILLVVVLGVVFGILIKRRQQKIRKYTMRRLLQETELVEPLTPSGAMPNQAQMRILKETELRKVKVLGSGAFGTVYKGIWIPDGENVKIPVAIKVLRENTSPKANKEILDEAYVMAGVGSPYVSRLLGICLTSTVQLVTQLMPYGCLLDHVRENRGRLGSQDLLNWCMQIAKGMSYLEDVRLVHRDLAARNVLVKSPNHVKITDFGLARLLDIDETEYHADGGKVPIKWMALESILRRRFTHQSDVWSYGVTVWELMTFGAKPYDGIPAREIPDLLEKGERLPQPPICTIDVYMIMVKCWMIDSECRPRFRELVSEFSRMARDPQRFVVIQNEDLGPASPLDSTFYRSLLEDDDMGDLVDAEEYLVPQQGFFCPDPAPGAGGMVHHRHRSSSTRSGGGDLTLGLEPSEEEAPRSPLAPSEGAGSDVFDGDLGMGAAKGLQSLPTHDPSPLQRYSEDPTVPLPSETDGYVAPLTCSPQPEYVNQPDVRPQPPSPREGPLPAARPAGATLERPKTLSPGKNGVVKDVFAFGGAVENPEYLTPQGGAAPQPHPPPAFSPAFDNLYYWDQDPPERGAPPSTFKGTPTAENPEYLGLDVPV

SMILES | %-inhibition of TRKA ([2]; kinase TRKA, 1 μM) [%] | %-inhibition, CK2α2/β ([5]; kinase CK2α2/β, 1 μM compound) [%] | %-inhibition of Erk1 [6] [%] | %-inhibition of GSK3α ([7]; kinase GSK3α, compound at 1 μM) [%] | %-inhibition of TNK1 ([9]; kinase TNK1, 1 μM) [%] | %-inhibition of RSK1 [10] [%] | %-inhibition of HIPK3 [11] [%] | %-inhibition of PLK3 [12] [%] | %-inhibition of MAP3K2 [13, 14] [%] | %-inhibition, ACK ([8]; kinase ACK, 1 μM compound) [%] | %-inhibition of HER2 ([1]; kinase HER2, compound at 1 μM) [%] | %-inhibition of HCK ([3]; kinase HCK, compound at 1 μM) [%] | %-inhibition of PDGFRα(T674I) ([4]; kinase PDGFRα(T674I), 1 μM) [%] | other results
CS(=O)(=O)CCNCc1ccc(-c2ccc3ncnc(Nc4ccc(OCc5cccc(F)c5)c(Cl)c4)c3c2)o1 [lapatinib] | 5.64 | -3.45 | -4 | -8 | -8.45 | 2.59 | 0.236 | 6 | 5.6 | – | – | – | – | %-inhibition of HER2 ([1]; 1 µM): 85%; %-inhibition of HCK ([3]; 1 µM): -0.366%; %-inhibition of PDGFRα(T674I) ([4]; 1 µM): 18%; %-inhibition, ACK ([8]; 1 µM): 2.36%
Cc1cn(-c2cc(NC(=O)c3ccc(C)c(Nc4nccc(-c5cccnc5)n4)c3)cc(C(F)(F)F)c2)cn1 [nilotinib] | – | – | 3.21 | -0.491 | – | 22 | 12 | 26 | -26 | 13 | – | – | – | %-inhibition of HER2 ([1]; 1 µM): 4.25%; %-inhibition of TRKA ([2]; 1 µM): 41%; %-inhibition of HCK ([3]; 1 µM): 73%; %-inhibition of PDGFRα(T674I) ([4]; 1 µM): 45%; %-inhibition, CK2α2/β ([5]; 1 µM): -4.26%; %-inhibition of TNK1 ([9]; 1 µM): -4%
CNC(=O)c1cc(Oc2ccc(NC(=O)Nc3ccc(Cl)c(C(F)(F)F)c3)c(F)c2)ccn1 [regorafenib] | 90 | -5.46 | -2 | 37 | 47 | 0.165 | 88 | 2.24 | 19 | -3.35 | 6.43 | 59 | 92 | –
N#CC[C@H](C1CCCC1)n1cc(-c2ncnc3[nH]ccc23)cn1 [ruxolitinib] | 92 | – | -2.29 | 9 | 31 | 1.49 | 2 | 13 | – | 93 | -3.75 | 9 | 17 | %-inhibition, CK2α2/β ([5]; 1 µM): -7%; %-inhibition of MAP3K2 ([13]; 1 µM): 75%
CO[C@H]1C[C@@H]2CC[C@@H](C)[C@@](O)(O2)C(=O)C(=O)N2CCCC[C@H]2C(=O)O[C@H]([C@H](C)C[C@@H]2CC[C@@H](OC(=O)C(C)(CO)CO)[C@H](OC)C2)CC(=O)[C@H](C)/C=C(\C)[C@@H](O)[C@@H](OC)C(=O)[C@H](C)C[C@H](C)/C=C/C=C/C=C/1C [temsirolimus] | -3.53 | -5.28 | 0.373 | -14 | -3 | -6.45 | 0.626 | -4.39 | 5.58 | -8 | -0.179 | 3.49 | -2.73 | –
CC(=O)Nc1cccc(-n2c(=O)n(C3CC3)c(=O)c3c(Nc4ccc(I)cc4F)n(C)c(=O)c(C)c32)c1 [trametinib] | -1.17 | -5.29 | -1.14 | – | – | -10 | 0.0849 | -6.59 | 0.801 | -5.39 | -5.36 | -2.84 | -0.248 | %-inhibition of GSK3α ([7]; 1 µM): 1.59%; %-inhibition of TNK1 ([9]; 1 µM): -2.58%
CCCS(=O)(=O)Nc1ccc(F)c(C(=O)c2c[nH]c3ncc(-c4ccc(Cl)cc4)cc23)c1F [vemurafenib] | 16 | -6.56 | 0.0533 | 25 | 13 | -1.32 | -6 | -2.83 | 21 | 40 | 2 | 30 | 1.49 | –
